Test results taken from US20240293405A1, “(1H-PYRROLO[2,3-B]PYRIDIN-1-YL)PYRIMIDIN-2-YL-AMINO-PHENYL-ACRYLAMIDE INHIBITORS OF EGFR FOR USE IN THE TREATMENT OF BRAIN TUMORS” (Dana-Farber Cancer Institute, Inc., priority 2021, published 2024).
“Also recorded” adds a separate entry of the source. Where two headings read alike, the source gives them in different places.

Tests used:
[1] = test system: 293-EGFRvIII cells; test: Cell viability of 293-EGFRvIII cells (CellTiter-Glo); format: cell-based, human; conditions: for IC50: Homo sapiens, read-out: IC50, viability of 293-EGFRvIII cells
Description: (§1) Cells were seeded in 96-well plates at a density of 1,000 cells per well and treated with two-fold serial dilutions of compounds with a starting concentration of 20 μM. Cell viability was assessed after three days of treatment by CellTiter-Glo (Promega). Curve fitting analysis and IC50 value determination were performed using GraphPad Prism 8.

[2] = test system: three primary patient-derived GBM cell lines harboring EGFR amplification and/or mutations; test: Cell viability, three patient-derived GBM cell lines (summary); format: cell-based; conditions: Homo sapiens; neurosphere culture; read-out: IC50 of cell viability, range over three patient cell lines
Description: as §1

[3] = test system: Caco-2 cells; test: Permeation and absorption in Caco-2 cells; format: in vitro ADME
From the text: Further understanding of DDI risk will await definition of Phase 2 doses and exposures.

[4] = Oral rat 4-week toxicity study with toxicokinetics; format: in vivo, Sprague-Dawley rats
Description: Compound 1 (0, 10, 30, and 100 mg/kg/day) was given orally, once daily by gavage to male and female Sprague-Dawley rats for up to 28 days. Morbidity, associated with marked body weight loss, necessitated termination of dosing in the high-dose group on Days 12/13. At this time, 5/sex in the high-dose group were taken to necropsy and 5/sex were started on recovery for the remainder of the study.
There were no obvious sex differences or accumulation (Table 13).
Major histological findings at the interim necropsy (100 mg/kg) included generalized lymphoid depletion, pulmonary edema/inflammation and testicular seminiferous tubule degeneration. All findings except testicular degeneration were reversible (˜14 days) in this study; the reversibility period was not long enough to assess reversibility of testicular changes. […] The STD10 was 30 mg/kg.

[5] = test system: NCI-H1975 cells (EGFR L858R/T790M mutation); test: Cell viability assay, NCI-H1975 (CellTiter-Glo); format: cell-based; conditions: Homo sapiens; NCI-H1975, 72 hours; read-out: IC50, cell viability
From the text: CellTier-Glo (Promega) assay kit (https://www.promega.com/resources/protocols/technical-bulletins/0/celltiter-glo-luminescentcell-viability-assay-protocol/) was used here.

## C=CC(=O)Nc1cc(Nc2nccc(-n3ccc4cccnc43)n2)c(OC)cc1N(C)CCN(C)C [Compound 1, N-(5-((4-(1H-pyrrolo[2,3-b]pyridin-1-yl)pyrimidin-2-yl)amino)-2-((2-(dimethylamino)ethyl)(methyl)amino)-4-methoxyphenyl)acrylamide]
[1]; HEK293-EGFRvIII cells
  fold more active than erlotinib (viability): 3 fold
  fold more active than gefitinib (viability): 10 fold
[1]; 72 h, 3 days treatment, CellTiter-Glo
  IC50: 1480 nM
[1]; unit as printed in b643 for Compound 1
  IC50: 1480 nM
[2]
  IC50: 890 to 3280 nM
[3]
  permeability in Caco-2 cells: Moderate permeability
  substrate of efflux transporters: not likely a transporter substrate; also recorded: not likely a substrate of efflux transporters; also recorded: not a likely substrate of efflux transporters
[3]; listed as Compound 11
  substrate of efflux transporters: unlikely that Compound 11 is a substrate of efflux transporters; also recorded: not a substrate
[4]; both sexes, Sprague-Dawley, in vivo, oral, 4-week Rat toxicology
  NOAEL at 28 days: 10 mg/kg
[4]; both, Sprague-Dawley, rat, in vivo
  NOEL for testicular lesions: 10 mg/kg
[4]; both, Sprague-Dawley, rat, in vivo, po
  STD10: 30 mg/kg
[4]; rat
  NOEL for myocardial risk: 100 mg/kg
[4]; rat, in vivo, po, 10 mg/kg
  toxicity at 10 mg/kg: No toxicity
[5]
  IC50: 34.4 nM
